Target: T1, Sterol O-acyltransferase 2 (Homo sapiens, UniProt O75908)
T1 sequence (O75908 whole entry): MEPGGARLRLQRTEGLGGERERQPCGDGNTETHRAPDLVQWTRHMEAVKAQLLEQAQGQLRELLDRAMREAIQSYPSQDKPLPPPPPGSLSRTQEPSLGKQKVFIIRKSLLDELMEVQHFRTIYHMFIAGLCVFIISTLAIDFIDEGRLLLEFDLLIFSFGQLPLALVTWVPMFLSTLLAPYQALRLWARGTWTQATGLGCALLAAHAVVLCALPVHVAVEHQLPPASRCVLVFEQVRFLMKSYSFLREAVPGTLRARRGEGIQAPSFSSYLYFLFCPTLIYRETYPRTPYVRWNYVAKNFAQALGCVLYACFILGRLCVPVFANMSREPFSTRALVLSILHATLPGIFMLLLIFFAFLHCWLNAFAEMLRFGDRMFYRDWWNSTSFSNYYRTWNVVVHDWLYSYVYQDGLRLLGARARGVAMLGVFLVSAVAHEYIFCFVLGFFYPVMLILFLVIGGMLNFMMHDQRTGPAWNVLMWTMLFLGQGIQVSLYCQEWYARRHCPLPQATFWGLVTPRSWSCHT
Assay: Inhibition Assay: Methods for assessing the selectively of ACAT1 inhibitors are known in the art and can be based upon any conventional assay including, but not limited to the determination of the half maximal (50%) inhibitory concentration (IC) of a substance (i.e., 50% IC, or IC50), the binding affinity of the inhibitor (i.e., Ki), and/or the half maximal effective concentration (EC50) of the inhibitor for ACAT1 as compared to ACAT2. See, e.g., Lada, et al. (2004) J. Lipid Res. 45:378-386 and U.S. Pat. No. 5,968,749. ACAT1 and ACAT2 proteins that can be employed in such assays are well-known in the art and set forth, e.g., in GENBANK Accession Nos. NP-000010 (human ACAT1) and NP-005882 (human ACAT2). See also U.S. Pat. No. 5,834,283.

Row | Compound | IC50 [µM]
1 | CC(C)c1cccc(C(C)C)c1NC(=O)CC(=O)C(Cc1ccccc1)Cc1ccc(OC(=O)CCCCCCN2CCCCCC2=O)cc1 (stereo unspecified) | 0.53
2 | CC(C)c1cccc(C(C)C)c1NC(=O)CC(=O)C(Cc1ccccc1)Cc1ccc(O)cc1 (stereo unspecified) | 1.5
3 | CCCCCCCC(=O)CNc1cc(-c2ccccc2)nn1-c1ccccc1 | 53
4 | CCCCCCCCCCNc1cc(-c2ccccc2)nn1-c1ccccc1 | 97
5 | CCCCCCCCC(=O)CNc1cc(-c2ccccc2)nn1-c1ccccc1 | 75
6 | CCCC[C@H](C)[C@@H]1CC(=O)N[C@@H](Cc2ccccc2)C(=O)N[C@@H](C)C(=O)N[C@H](CC(C)C)C(=O)O1 [BEAUVERIOLIDE I] | 20

Reference: ChEMBL document CHEMBL3886271, “Method for selectively inhibiting ACAT1 in the treatment of alzheimer's disease” (2015)
